Here are results for two compounds from patent US20240390282A1, “DRUG-LOADED LIPOSOMES AND USES THEREOF IN TREATING BIOFILM” (Yeda Research and Development Co. Ltd., priority 2022, published 2024).

The conditions of data set [1]: cited from earlier work.
A further data set relates to PA14-biofilms. Description: Bacterial viability in biofilms by LIVE/DEAD staining. As to conditions: PA14 biofilm; free SMX 1.5 mg/mL. Type of data set: cell-based, Pseudomonas aeruginosa. The procedure:
Determination of bacterial viability in biofilms by LIVE/DEAD™ staining: PA14-biofilms were developed on 8 Well p-Slide (ibidi GmbH, Germany). 150 μL of the inoculum was incubated in a humidified incubator for 24 hours at 37° C. without shaking. After 24 hours, the fully formed biofilm was gently washed twice with PBS. 160 μL of liposomal suspension or BM2G medium was added to each well, and subsequently, the samples were incubated at 37° C. for 4 hours. Each well was then washed with PBS, and a second dose (170 μL) of antibacterial treatment was applied for 4 hours with incubation at 37° C. Subsequently, biofilm was washed with 180 μL of PBS buffer, and bacteria cells were stained using a BacLight™ Bacterial Viability Kit@ (Thermo Fisher Scientific™, USA). Live bacterial cells were stained with SYTO™ 9 dye (ex: 486/em: 501) and dead cells were stained with propidium iodide (PI) dye (λEx: 535/λEm: 617), with dyes mixed in 1:1 ratio. […] Later, wells were washed twice with PBS, and images of biofilm were acquired using confocal fluorescence microscopy. Cell viability quantification was performed using ImageJ software v1.52i (NIH, USA). Confocal pictures were acquired using a confocal laser scanning fluorescence microscope LSM700 (ZEISS, Germany). […] Images were recorded in brightfield mode and in confocal mode using 488 excitation and 561 excitation laser channels. […]

Usually pKa stands for the pH at which an ionisable group is half protonated. With `O=c1oc2c(O)c(O)cc3c(=O)oc4c(O)c(O)cc1c4c23` [Ellagic acid (EA), Ellagic acid], in data set [1], the LogP is 1.59-2.32 and the pKa is listed as 5.8. For the compound `Cc1cc(NS(=O)(=O)c2ccc(N)cc2)no1` [Sulfamethoxazole (SMX), Sulfamethoxazole], the “dead cells (red loci) in words” value in the data set on PA14-biofilms is “significant increase in the number of red loci”.
